PMC10746543, “Design principles for cyclin K molecular glue degraders” (Nature Chemical Biology, 2023)
“And” between values parts separate entries of the source, which are not always exact repeats. Equal entries are not always repeated. Where two headings read alike, the source gives them in different places.

How the values were obtained:
CDK12–cyclin K and DDB1 = target: T1, CDK12–cyclin K and DDB1 (Homo sapiens, UniProt Q16531+Q9NYV4, K965R); assay: TR-FRET ternary complex formation assay (compound titration); format: binding; settings: for TR-FRET signal at compound concentration 0.468 nM / TR-FRET signal at compound concentration 2.16 nM / TR-FRET signal at compound concentration 3.6 nM / TR-FRET signal at compound concentration 7.92001 nM / TR-FRET signal at compound concentration 15.84 nM / TR-FRET signal at compound concentration 30.96 nM / TR-FRET signal at compound concentration 62.6401 nM / TR-FRET signal at compound concentration 125.28 nM / TR-FRET signal at compound concentration 244.8 nM / TR-FRET signal at compound concentration 993.601 nM / TR-FRET signal at compound concentration 2001.6 nM / TR-FRET signal at compound concentration 4.68 nM / TR-FRET signal at compound concentration 21.6 nM / TR-FRET signal at compound concentration 36 nM / TR-FRET signal at compound concentration 79.2001 nM / TR-FRET signal at compound concentration 158.4 nM / TR-FRET signal at compound concentration 309.6 nM / TR-FRET signal at compound concentration 626.401 nM / TR-FRET signal at compound concentration 1252.8 nM / TR-FRET signal at compound concentration 2448 nM / TR-FRET signal at compound concentration 9936.01 nM / TR-FRET signal at compound concentration 20016 nM: raw titration data
T1 construct: His6–CDK12 (a.a. 713–1,052); full-length or beta-propeller B domain deletion (ΔBPB: a.a. 396–705 deleted) constructs of His6–DDB1ΔBPB, StrepII–Avi–DDB1, or His6–Spy–DDB1; made in house; host or cells: Trichoplusia ni High Five insect cells (baculovirus)
T1 sequence (Q9NYV4 713-1052 K965R): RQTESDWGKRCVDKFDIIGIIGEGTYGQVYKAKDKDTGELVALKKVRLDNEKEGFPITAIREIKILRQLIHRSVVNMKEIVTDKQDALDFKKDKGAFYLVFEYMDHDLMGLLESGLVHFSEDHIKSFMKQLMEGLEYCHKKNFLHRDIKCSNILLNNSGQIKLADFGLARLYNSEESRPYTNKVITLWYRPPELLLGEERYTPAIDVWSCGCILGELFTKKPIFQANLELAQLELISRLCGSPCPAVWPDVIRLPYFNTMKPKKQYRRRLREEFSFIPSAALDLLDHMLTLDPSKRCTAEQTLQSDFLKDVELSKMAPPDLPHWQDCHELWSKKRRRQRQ
T1 sequence (O75909 1-267 partner): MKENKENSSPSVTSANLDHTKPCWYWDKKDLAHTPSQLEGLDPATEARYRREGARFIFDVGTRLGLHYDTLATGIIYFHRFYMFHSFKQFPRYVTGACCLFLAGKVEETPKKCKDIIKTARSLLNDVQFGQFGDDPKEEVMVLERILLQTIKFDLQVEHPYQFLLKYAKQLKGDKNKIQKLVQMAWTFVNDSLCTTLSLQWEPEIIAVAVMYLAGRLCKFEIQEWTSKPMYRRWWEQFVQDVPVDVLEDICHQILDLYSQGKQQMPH
T1 sequence (Q16531 whole entry): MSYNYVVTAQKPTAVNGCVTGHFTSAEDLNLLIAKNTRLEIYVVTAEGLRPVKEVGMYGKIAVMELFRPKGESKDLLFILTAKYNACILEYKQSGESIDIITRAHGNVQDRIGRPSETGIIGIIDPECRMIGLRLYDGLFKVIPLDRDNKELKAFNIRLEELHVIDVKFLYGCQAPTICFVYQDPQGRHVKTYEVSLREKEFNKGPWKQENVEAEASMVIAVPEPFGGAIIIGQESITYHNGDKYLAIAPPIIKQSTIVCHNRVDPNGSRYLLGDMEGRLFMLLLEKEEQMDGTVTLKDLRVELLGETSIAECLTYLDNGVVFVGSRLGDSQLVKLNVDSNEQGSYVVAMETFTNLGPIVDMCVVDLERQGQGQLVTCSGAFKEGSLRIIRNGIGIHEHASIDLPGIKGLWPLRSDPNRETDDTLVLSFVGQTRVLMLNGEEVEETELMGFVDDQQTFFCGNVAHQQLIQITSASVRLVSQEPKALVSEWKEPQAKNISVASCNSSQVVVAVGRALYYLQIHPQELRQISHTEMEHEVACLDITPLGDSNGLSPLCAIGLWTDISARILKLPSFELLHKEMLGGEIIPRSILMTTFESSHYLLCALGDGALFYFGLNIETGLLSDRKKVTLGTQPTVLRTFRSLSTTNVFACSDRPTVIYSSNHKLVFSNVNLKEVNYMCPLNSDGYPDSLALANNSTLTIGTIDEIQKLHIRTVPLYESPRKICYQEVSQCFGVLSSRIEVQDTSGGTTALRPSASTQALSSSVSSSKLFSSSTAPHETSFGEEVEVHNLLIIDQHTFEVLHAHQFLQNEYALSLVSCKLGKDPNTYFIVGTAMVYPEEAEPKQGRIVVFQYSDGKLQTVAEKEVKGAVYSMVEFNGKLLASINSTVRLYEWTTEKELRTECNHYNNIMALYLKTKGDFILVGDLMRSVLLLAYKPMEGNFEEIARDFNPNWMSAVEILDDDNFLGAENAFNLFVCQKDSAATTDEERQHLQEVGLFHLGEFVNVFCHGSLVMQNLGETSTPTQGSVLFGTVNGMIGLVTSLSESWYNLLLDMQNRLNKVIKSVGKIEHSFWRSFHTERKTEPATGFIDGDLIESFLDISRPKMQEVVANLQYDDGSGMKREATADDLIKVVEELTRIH
Method in brief: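 Background fluorescence is reduced by reading 70 μs after excitation, and complex formation is followed as the 520:490 nm fluorescence ratio.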

[1] = test system: cyclin K–eGFP degradation reporter; assay: Cyclin K reporter stability analysis (dual-color cyclin K–eGFP reporter); format: cell-based, human
Method in brief: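 HEK293T–Cas9 cells carrying the cyclin K–eGFP reporter were seeded at 1 × 10^6 ml^−1 and exposed to drug or DMSO for 5 h. Flow cytometry gave geometric means of eGFP and mCherry in round, mCherry-positive cells. The eGFP/mCherry ratio was normalized to the mean of three DMSO controls.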

HEK293T cells = assay: Drug sensitivity assay (CellTiter-Glo viability) with or without MLN4924 pretreatment; format: cell-based, human; settings: Supplementary Table 2; for EC50: Homo sapiens, HEK-293T, HEK293T viability, 72 h, compound alone, read-out: Cellular assays EC50; for Toxicity rescue: MLN4924-mediated cytotoxicity rescue, 10 µM used where n.d.
Method in brief: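 First, cells (HEK293T–Cas9, 0.15 × 10^6 ml^−1) are exposed to DMSO or 100 nM MLN4924. Next, drugs follow at 2 h. Finally, CellTiter-Glo is read at day 3 and normalised to DMSO.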

[2] = in vitro complex formation, 50 nM CDK12–cyclin K, 100 nM DDB1, text and figures, read-out: TR-FRET EC50
[3] = sheet MOESM7, read-out: log TR-FRET EC50 (converted)
[4] = source data sheet correlations, read-out: TR-FRET EC50
[5] = source data sheet correlations, read-out: DC50

Structure (SMILES) | TR-FRET signal at compound concentration 0.468 nM (CDK12–cyclin K and DDB1) | TR-FRET signal at compound concentration 2.16 nM (CDK12–cyclin K and DDB1) | TR-FRET signal at compound concentration 3.6 nM (CDK12–cyclin K and DDB1) | TR-FRET signal at compound concentration 7.92001 nM (CDK12–cyclin K and DDB1) | TR-FRET signal at compound concentration 15.84 nM (CDK12–cyclin K and DDB1) | TR-FRET signal at compound concentration 30.96 nM (CDK12–cyclin K and DDB1) | TR-FRET signal at compound concentration 62.6401 nM (CDK12–cyclin K and DDB1) | TR-FRET signal at compound concentration 125.28 nM (CDK12–cyclin K and DDB1) | TR-FRET signal at compound concentration 244.8 nM (CDK12–cyclin K and DDB1) | TR-FRET signal at compound concentration 993.601 nM (CDK12–cyclin K and DDB1) | TR-FRET signal at compound concentration 2001.6 nM (CDK12–cyclin K and DDB1) | EC50 (CDK12–cyclin K and DDB1; [2]) | EC50 (CDK12–cyclin K and DDB1; [3]) | EC50 (CDK12–cyclin K and DDB1; [4]) | DC50 [1, 5] | EC50 (HEK293T cells) | Toxicity rescue (HEK293T cells) | TR-FRET signal at compound concentration 4.68 nM (CDK12–cyclin K and DDB1) | TR-FRET signal at compound concentration 21.6 nM (CDK12–cyclin K and DDB1) | TR-FRET signal at compound concentration 36 nM (CDK12–cyclin K and DDB1) | further results
CC(C)n1cnc2c(NCc3ccc(-c4ccccn4)cc3)nc(NCc3c(Cl)cncc3Cl)nc21 [DS48] | 0.2749 and 0.2901 | 0.3467 and 0.3488 | 0.4769 and 0.4631 | 0.7379 and 0.6676 | 1.149 and 0.9938 | 1.778 and 1.5795 | 2.574 and 2.417 | 3.287 and 3.206 | 3.511 and 3.701 | 3.896 and 4.02 | 3.877 and 4.06 | 46 ± 2 nM | 46 nM | 46 nM | 366 nM | 907 nM | 313% | – | – | – | –
COc1ccccc1CCNC(=O)CNc1nc(NCc2ccc(-c3ccccn3)cc2)c2ncn(C(C)C)c2n1 [DS50] | – | – | – | – | – | – | – | – | – | – | – | – | 1920 nM | 1920 nM | 3570 nM | > 10000 nM | 0% | 0.2095 and 0.2212 | 0.2225 and 0.2323 | 0.253 and 0.2736 | TR-FRET signal at compound concentration 79.2001 nM (CDK12–cyclin K and DDB1): 0.3096 and 0.3199; TR-FRET signal at compound concentration 158.4 nM (CDK12–cyclin K and DDB1): 0.4094 and 0.4186; TR-FRET signal at compound concentration 309.6 nM (CDK12–cyclin K and DDB1): 0.5758 and 0.5879; TR-FRET signal at compound concentration 626.401 nM (CDK12–cyclin K and DDB1): 0.9565 and 0.9048; TR-FRET signal at compound concentration 1252.8 nM (CDK12–cyclin K and DDB1): 1.567 and 1.497; TR-FRET signal at compound concentration 2448 nM (CDK12–cyclin K and DDB1): 2.482 and 2.457; TR-FRET signal at compound concentration 9936.01 nM (CDK12–cyclin K and DDB1): 3.626 and 3.7316; TR-FRET signal at compound concentration 20016 nM (CDK12–cyclin K and DDB1): 3.761 and 3.946
CC(C)n1cnc2c(NCc3ccc(-c4ccccn4)cc3)nc(NCCCCCC(=O)N[C@H]3O[C@H](CO)[C@@H](O)[C@H](O)[C@H]3O)nc21 [DS51] | – | – | – | – | – | – | – | – | – | – | – | 275 ± 16 nM | 274 nM | – | – | > 10000 nM | 0% | 0.2297 and 0.2444 | 0.3216 and 0.3313 | 0.5067 and 0.5037 | EC50 (CDK12–cyclin K and DDB1; Supplementary Table 2, read-out: TR-FRET EC50 TR-FRET): 274 nM; TR-FRET signal at compound concentration 79.2001 nM (CDK12–cyclin K and DDB1): 0.816 and 0.7927; TR-FRET signal at compound concentration 158.4 nM (CDK12–cyclin K and DDB1): 1.255 and 1.244; TR-FRET signal at compound concentration 309.6 nM (CDK12–cyclin K and DDB1): 1.886 and 1.872; TR-FRET signal at compound concentration 626.401 nM (CDK12–cyclin K and DDB1): 2.526 and 2.552; TR-FRET signal at compound concentration 1252.8 nM (CDK12–cyclin K and DDB1): 3.049 and 3.029; TR-FRET signal at compound concentration 2448 nM (CDK12–cyclin K and DDB1): 3.216 and 3.3184; TR-FRET signal at compound concentration 9936.01 nM (CDK12–cyclin K and DDB1): 3.256 and 3.415; TR-FRET signal at compound concentration 20016 nM (CDK12–cyclin K and DDB1): 3.017 and 3.197; DC50 ([1]; Supplementary Table 2, HEK293T cycK-eGFP reporter, 5 h, read-out: Cellular assays DC50): > 10000 nM
CC[C@H](CO)Nc1nc(NCc2ccc(-c3ccncc3)nc2)c2ncn(C(C)C)c2n1 [DS53] | 0.2712 and 0.18 and 0.1818 | 0.3079 and 0.2048 and 0.2158 | 0.3797 and 0.262 and 0.2749 | 0.5132 and 0.3757 and 0.3886 | 0.7262 and 0.5713 and 0.5982 | 1.044 and 0.9086 and 0.9152 | 1.465 and 1.176 and 1.2036 | 1.697 and 1.379 and 1.374 | 1.763 and 1.446 and 1.498 | 1.748 and 1.523 and 1.543 | 1.731 and 1.529 and 1.559 | 28 ± 2 nM | – | 27.7 nM | 260 nM | 635 nM | 140% | – | – | – | –
